Source: ChEMBL document CHEMBL1201862, “PubChem BioAssay data set” (2004)
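Tested at 5 concentrations; 48 h exposure; 96-well plates; endpoints linearly interpolated, else capped at highest concentration. The concentration for 50% growth inhibition is given as GI50.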 Active and inactive are the calls of the source. Rule as the data show it: active = GI50 up to about 1.1 µM and inactive = higher.

Tests used:
Experiment in all cases: growth of human tumour cells (NCI), 48 h
M14 = system: M14
TK-10 = system: TK-10
HOP-62 = system: HOP-62
KM-20L2 = system: KM-20L2
M19-MEL = system: M19-MEL
Malme-3M = system: Malme-3M
786-0 = system: 786-0
DLD-1 = system: DLD-1
NCI-H460 = system: NCI-H460
OVCAR-3 = system: OVCAR-3
SF-539 = system: SF-539
HCT-15 = system: HCT-15
SK-MEL-5 = system: SK-MEL-5
A498 = system: A498
LXFL 529 = system: LXFL 529
ACHN = system: ACHN
K562 = system: K562
SF-268 = system: SF-268
NCI-H226 = system: NCI-H226
MOLT-4 = system: MOLT-4
UACC-62 = system: UACC-62
SK-MEL-28 = system: SK-MEL-28
SNB-19 = system: SNB-19
OVCAR-4 = system: OVCAR-4
HOP-18 = system: HOP-18
SK-OV-3 = system: SK-OV-3
A549 = system: A549
RXF 631 = system: RXF 631
SN12C = system: SN12C
U-251 = system: U-251
CAKI-1 = system: CAKI-1
RXF 393 = system: RXF 393
HCC 2998 = system: HCC 2998
NCI-H522 = system: NCI-H522
SR = system: SR
OVCAR-8 = system: OVCAR-8
SW-620 = system: SW-620
SNB-75 = system: SNB-75
UO-31 = system: UO-31
DMS-114 = system: DMS-114
KM12 = system: KM12
UACC-257 = system: UACC-257
RPMI-8226 = system: RPMI-8226
DMS-273 = system: DMS-273
COLO 205 = system: COLO 205
IGROV-1 = system: IGROV-1
SK-MEL-2 = system: SK-MEL-2
CCRF-CEM = system: CCRF-CEM
HCT-116 = system: HCT-116
HL-60 = system: HL-60
SNB-78 = system: SNB-78
XF498 = system: XF498
EKVX = system: EKVX
OVCAR-5 = system: OVCAR-5
HOP-92 = system: HOP-92
NCI-H23 = system: NCI-H23
SF-295 = system: SF-295
LOX IMVI = system: LOX IMVI
HT-29 = system: HT-29

CC(=O)OC(=O)O/C=C\CCl
GI50 (M14): > 100 µM (inactive) | GI50 (TK-10): > 100 µM (inactive) | GI50 (HOP-62): > 100 µM (inactive) | GI50 (KM-20L2): > 100 µM (inactive) | GI50 (M19-MEL): > 100 µM (inactive) | GI50 (Malme-3M): > 100 µM (inactive) | GI50 (786-0): > 100 µM (inactive) | GI50 (DLD-1): > 100 µM (inactive) | GI50 (NCI-H460): > 100 µM (inactive) | GI50 (OVCAR-3): > 100 µM (inactive) | GI50 (SF-539): > 100 µM (inactive) | GI50 (HCT-15): > 100 µM | GI50 (SK-MEL-5): > 100 µM (inactive) | GI50 (A498): > 100 µM (inactive) | GI50 (LXFL 529): > 100 µM (inactive) | GI50 (ACHN): > 100 µM (inactive) | GI50 (K562): > 100 µM (inactive) | GI50 (SF-268): > 100 µM (inactive) | GI50 (NCI-H226): > 100 µM (inactive) | GI50 (MOLT-4): 38 µM (inactive) | GI50 (UACC-62): > 100 µM (inactive) | GI50 (SK-MEL-28): > 100 µM (inactive) | GI50 (SNB-19): > 100 µM (inactive) | GI50 (OVCAR-4): > 100 µM (inactive) | GI50 (HOP-18): > 100 µM (inactive) | GI50 (SK-OV-3): > 100 µM (inactive) | GI50 (A549): > 100 µM (inactive) | GI50 (RXF 631): > 100 µM (inactive) | GI50 (SN12C): > 100 µM (inactive) | GI50 (U-251): > 100 µM (inactive) | GI50 (CAKI-1): > 100 µM (inactive) | GI50 (RXF 393): > 100 µM (inactive) | GI50 (HCC 2998): > 100 µM (inactive) | GI50 (NCI-H522): 13.7 µM (inactive) | GI50 (SR): 42 µM (inactive) | GI50 (OVCAR-8): > 100 µM (inactive) | GI50 (SW-620): > 100 µM (inactive) | GI50 (SNB-75): > 100 µM (inactive) | GI50 (UO-31): > 100 µM (inactive) | GI50 (DMS-114): > 100 µM (inactive) | GI50 (KM12): > 100 µM (inactive) | GI50 (UACC-257): > 100 µM (inactive) | GI50 (RPMI-8226): > 100 µM (inactive) | GI50 (DMS-273): 62.8 µM (inactive) | GI50 (COLO 205): > 100 µM (inactive) | GI50 (IGROV-1): > 100 µM (inactive) | GI50 (SK-MEL-2): > 100 µM (inactive) | GI50 (CCRF-CEM): 93.8 µM (inactive) | GI50 (HCT-116): > 100 µM (inactive) | GI50 (HL-60): 29.4 µM (inactive) | GI50 (SNB-78): > 100 µM (inactive)

O=C1C2C(C(=O)N1OS(=O)(=O)c1ccccc1)N(Cc1ccccc1)C(=O)N2Cc1ccccc1 (stereo unspecified)
GI50 (M14): > 100 µM (inactive) | GI50 (TK-10): > 100 µM (inactive) | GI50 (XF498): > 100 µM (inactive) | GI50 (HOP-62): > 100 µM (inactive) | GI50 (KM-20L2): > 100 µM (inactive) | GI50 (M19-MEL): > 100 µM (inactive) | GI50 (EKVX): > 100 µM (inactive) | GI50 (Malme-3M): > 100 µM (inactive) | GI50 (786-0): > 100 µM (inactive) | GI50 (DLD-1): > 100 µM (inactive) | GI50 (NCI-H460): > 100 µM (inactive) | GI50 (OVCAR-3): > 100 µM (inactive) | GI50 (SF-539): > 100 µM (inactive) | GI50 (HCT-15): > 100 µM | GI50 (SK-MEL-5): > 100 µM (inactive) | GI50 (A498): > 100 µM (inactive) | GI50 (LXFL 529): > 100 µM (inactive) | GI50 (ACHN): > 100 µM (inactive) | GI50 (K562): > 100 µM (inactive) | GI50 (SF-268): > 100 µM (inactive) | GI50 (NCI-H226): > 100 µM (inactive) | GI50 (MOLT-4): > 100 µM (inactive) | GI50 (UACC-62): > 100 µM (inactive) | GI50 (OVCAR-5): > 100 µM (inactive) | GI50 (SK-MEL-28): > 100 µM (inactive) | GI50 (HOP-92): > 100 µM (inactive) | GI50 (SNB-19): > 100 µM (inactive) | GI50 (OVCAR-4): > 100 µM (inactive) | GI50 (SK-OV-3): > 100 µM (inactive) | GI50 (NCI-H23): > 100 µM (inactive) | GI50 (A549): > 100 µM (inactive) | GI50 (RXF 631): > 100 µM (inactive) | GI50 (SN12C): > 100 µM (inactive) | GI50 (U-251): > 100 µM (inactive) | GI50 (SF-295): > 100 µM (inactive) | GI50 (CAKI-1): > 100 µM (inactive) | GI50 (RXF 393): 70.8 µM (inactive) | GI50 (HCC 2998): > 100 µM (inactive) | GI50 (NCI-H522): > 100 µM (inactive) | GI50 (SR): > 100 µM (inactive) | GI50 (LOX IMVI): > 100 µM (inactive) | GI50 (SW-620): > 100 µM (inactive) | GI50 (SNB-75): 57.1 µM (inactive) | GI50 (UO-31): > 100 µM (inactive) | GI50 (DMS-114): > 100 µM (inactive) | GI50 (KM12): > 100 µM (inactive) | GI50 (UACC-257): > 100 µM (inactive) | GI50 (RPMI-8226): > 100 µM (inactive) | GI50 (HT-29): > 100 µM (inactive) | GI50 (COLO 205): > 100 µM (inactive) | GI50 (IGROV-1): > 100 µM (inactive) | GI50 (CCRF-CEM): > 100 µM (inactive) | GI50 (HCT-116): > 100 µM (inactive) | GI50 (HL-60): > 100 µM (inactive) | GI50 (SNB-78): > 100 µM (inactive)

O=C(Nc1nc2ccc([N+](=O)[O-])cc2s1)C(=O)C(C1OC(=O)c2ccccc21)[N+](=O)[O-] (stereo unspecified)
GI50 (M14): > 100 µM (inactive) | GI50 (TK-10): 69.2 µM (inactive) | GI50 (XF498): 27.6 µM (inactive) | GI50 (HOP-62): 31.9 µM (inactive) | GI50 (KM-20L2): > 100 µM (inactive) | GI50 (M19-MEL): > 100 µM (inactive) | GI50 (EKVX): 31.5 µM (inactive) | GI50 (Malme-3M): > 100 µM (inactive) | GI50 (786-0): > 100 µM (inactive) | GI50 (DLD-1): 64.6 µM (inactive) | GI50 (NCI-H460): > 100 µM (inactive) | GI50 (OVCAR-3): 71 µM (inactive) | GI50 (SF-539): 49.9 µM (inactive) | GI50 (HCT-15): 66.7 µM | GI50 (SK-MEL-5): 64.6 µM (inactive) | GI50 (A498): 12.6 µM (inactive) | GI50 (LXFL 529): 85.1 µM (inactive) | GI50 (ACHN): 39.3 µM (inactive) | GI50 (K562): 83.4 µM (inactive) | GI50 (SF-268): 76.9 µM (inactive) | GI50 (NCI-H226): 55.8 µM (inactive) | GI50 (MOLT-4): 88.5 µM (inactive) | GI50 (UACC-62): 65.8 µM (inactive) | GI50 (OVCAR-5): > 100 µM (inactive) | GI50 (SK-MEL-28): > 100 µM (inactive) | GI50 (HOP-92): 20.4 µM (inactive) | GI50 (SNB-19): 58.6 µM (inactive) | GI50 (OVCAR-4): > 100 µM (inactive) | GI50 (SK-OV-3): 54.3 µM (inactive) | GI50 (NCI-H23): 55.2 µM (inactive) | GI50 (A549): > 100 µM (inactive) | GI50 (RXF 631): 70.1 µM (inactive) | GI50 (SN12C): 75 µM (inactive) | GI50 (U-251): 82.8 µM (inactive) | GI50 (SF-295): 91.2 µM (inactive) | GI50 (CAKI-1): 70.1 µM (inactive) | GI50 (RXF 393): 27.5 µM (inactive) | GI50 (HCC 2998): > 100 µM (inactive) | GI50 (SR): 54.1 µM (inactive) | GI50 (OVCAR-8): > 100 µM (inactive) | GI50 (LOX IMVI): > 100 µM (inactive) | GI50 (SW-620): > 100 µM (inactive) | GI50 (SNB-75): 35.6 µM (inactive) | GI50 (UO-31): 20.3 µM (inactive) | GI50 (KM12): > 100 µM (inactive) | GI50 (UACC-257): > 100 µM (inactive) | GI50 (RPMI-8226): 56.2 µM (inactive) | GI50 (HT-29): > 100 µM (inactive) | GI50 (COLO 205): > 100 µM (inactive) | GI50 (IGROV-1): 42.2 µM (inactive) | GI50 (SK-MEL-2): 41.5 µM (inactive) | GI50 (CCRF-CEM): 63.2 µM (inactive) | GI50 (HCT-116): 97.5 µM (inactive) | GI50 (HL-60): 63.2 µM (inactive) | GI50 (SNB-78): 85.5 µM (inactive)
